{
  "source": "patent US7605131B2",
  "about": "“EML4-ALK fusion gene” (Astellas Pharma Inc., priority 2007, dated 2009)",
  "key": {"[1]": {"target": "T1, EML4-ALK fusion polypeptide v3 (Homo sapiens, UniProt Q9UM73, D1529E/I1461V/K1491R)", "T1 sequence (Q9UM73 with tags, fused parts or gaps I1461V/K1491R/D1529E)": "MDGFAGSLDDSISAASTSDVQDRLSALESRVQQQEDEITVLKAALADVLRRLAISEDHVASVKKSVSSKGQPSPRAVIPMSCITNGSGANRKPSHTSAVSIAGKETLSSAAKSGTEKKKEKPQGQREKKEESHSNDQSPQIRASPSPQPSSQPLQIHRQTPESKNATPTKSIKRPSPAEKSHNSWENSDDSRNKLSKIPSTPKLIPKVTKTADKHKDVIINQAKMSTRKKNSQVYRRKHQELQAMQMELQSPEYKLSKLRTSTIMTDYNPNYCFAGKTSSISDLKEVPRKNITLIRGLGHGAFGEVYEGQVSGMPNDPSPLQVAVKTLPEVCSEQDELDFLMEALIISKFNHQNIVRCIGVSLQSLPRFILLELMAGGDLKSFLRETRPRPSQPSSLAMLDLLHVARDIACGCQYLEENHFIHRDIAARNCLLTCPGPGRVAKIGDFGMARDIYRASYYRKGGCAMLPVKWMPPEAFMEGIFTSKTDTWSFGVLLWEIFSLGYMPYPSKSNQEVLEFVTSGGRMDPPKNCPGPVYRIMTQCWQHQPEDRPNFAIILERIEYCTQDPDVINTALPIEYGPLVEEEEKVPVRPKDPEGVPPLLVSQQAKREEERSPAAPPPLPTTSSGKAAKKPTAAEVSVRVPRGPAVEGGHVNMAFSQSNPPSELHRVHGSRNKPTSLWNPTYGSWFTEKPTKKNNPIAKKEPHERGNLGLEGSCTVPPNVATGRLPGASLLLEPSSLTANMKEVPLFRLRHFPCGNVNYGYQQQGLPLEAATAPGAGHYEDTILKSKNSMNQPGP", "test": "Intracellular autophosphorylation of EML4-ALK fusion polypeptide v3 in v3 expressing 3T3 cells", "type": "cell-based", "settings": "4 hours", "from_the_text": "The EML4-ALK fusion polypeptide v3 expression vector (designated as EML4-ALKv3/pMXS) was constructed by subcloning the insert of the EML4-ALKv3/pT7Blue-2 in pMXS plasmid (JBC 275, 24945-24952, 2000). Also, using the EML4-ALKv3/pT7Blue-2, an expression vector (designated as FLAG-EML4-ALKv3/pMX-iresCD8) which expresses both EML4-ALK fusion polypeptide v3 having the FLAG tag at the N-terminus and CD8 was constructed by subcloning the insert in pMX-iresCD8 plasmid (JBC 276, 39012-39020, 2001). The 3T3 cells transfected with the EML4-ALKv3/pMXS described above were inoculated subcutaneously to nude mice at 5×10^6 cells/mouse and observed after 20 days. […] Hereinafter, the 3T3 cells in which EML4-ALK fusion polypeptide v3 is expressed are designated as the v3 expressing 3T3 cells."}, "[2]": {"test_system": "v3 expressing 3T3 cells", "test": "Anchorage independent growth of v3 expressing 3T3 cells (spheroid plate, CellTiter-Glo)", "type": "cell-based", "method": "Measurement for anchorage independent cell growth (colony method, etc) has been known to be a system for investigating an antitumor effect (pharmacologic effect) of compounds (Clinical Oncology, second edition, Cancer and Chemotherapy Publishers Inc.). In place of the colony method, there is a following method using spheroid plates for measuring the growth of non-attached cells.\n(§1) The v3 expressing 3T3 cells (Example 2) were seeded to a 96 well spheroid plate (Sumilon Celltight Spheroid 96U, Sumitomo Bakelite Inc.) at 3000 cells per well in a medium (Invitrogen) containing 10% fetal bovine serum. […] At the same time, cells were counted before the addition of drugs (Day 0). Then, cells were cultured under 5% CO2, at 37° C. for 3 days, mixed with a reagent for measuring cell number (CellTiter-Glo™ Luminescent Cell Viability Assay; Promega Inc.) stirred for 20 minutes, and the measurements (day 3) were carried out using a luminometer (ML3000 microtiter plate luminometer; Dynatech Laboratories Inc.)."}, "[3]": {"test_system": "NCI-H2228 cells", "test": "Anchorage independent growth of NCI-H2228 cells (spheroid plate)", "type": "cell-based, human", "method": "as §1\nDMSO (control) or compound A-D was added to the NCI-H2228 cells at 10 μM or 30 nM and this investigation was performed by a similar manner described as in Example 5, except cells were cultured for 5 days after the addition of drugs."}, "[4]": {"target": "T2, NPM-ALK (Homo sapiens, UniProt Q9UM73)", "T2 construct": "the other entry of the earlier key: NPM1 (P06748, Nucleophosmin)", "T2 sequence (Q9UM73 with tags, fused parts or gaps)": "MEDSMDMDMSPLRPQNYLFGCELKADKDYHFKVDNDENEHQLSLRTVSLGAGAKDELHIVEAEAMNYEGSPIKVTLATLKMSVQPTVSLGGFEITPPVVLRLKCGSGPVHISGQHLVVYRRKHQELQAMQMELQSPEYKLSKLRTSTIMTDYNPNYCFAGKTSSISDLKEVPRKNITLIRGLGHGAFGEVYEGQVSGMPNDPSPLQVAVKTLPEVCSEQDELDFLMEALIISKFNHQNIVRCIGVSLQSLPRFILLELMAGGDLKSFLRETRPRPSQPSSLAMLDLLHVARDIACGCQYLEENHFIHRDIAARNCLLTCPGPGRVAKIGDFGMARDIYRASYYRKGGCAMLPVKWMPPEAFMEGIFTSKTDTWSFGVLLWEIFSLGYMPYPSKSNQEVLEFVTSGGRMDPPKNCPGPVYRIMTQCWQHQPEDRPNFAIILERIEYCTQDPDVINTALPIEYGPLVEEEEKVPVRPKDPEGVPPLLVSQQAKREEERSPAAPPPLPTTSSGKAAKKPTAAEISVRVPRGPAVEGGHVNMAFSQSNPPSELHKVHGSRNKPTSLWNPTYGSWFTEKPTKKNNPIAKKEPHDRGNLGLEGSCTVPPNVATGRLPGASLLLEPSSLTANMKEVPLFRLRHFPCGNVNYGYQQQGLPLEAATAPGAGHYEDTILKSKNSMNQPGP", "settings": "reported in Laboratory investigation 2005, Vol. 85, p. 1544-1554; cited from earlier work"}, "[5]": {"target": "T1, EML4-ALK fusion polypeptide v3", "test": "In vitro autophosphorylation of purified EML4-ALK fusion polypeptide v3 (immunoblot, anti-phosphorylated ALK antibody)", "type": "biochemical", "set-up": "expresses both EML4-ALK fusion polypeptide v3 having the FLAG tag at the N-terminus and CD8; made in house; host or cells: mouse BA/F3 cells infected with FLAG-EML4-ALKv3/pMX-iresCD8 retrovirus", "method": "(§2) A recombinant retrovirus was produced according to a method of previous report (BBRC 356, 723-726, 2007) using FLAG-EML4-ALKv3/pMX-iresCD8. Mouse lymphatic cell line BA/F3 cells were infected therewith. The EML4-ALK fusion polypeptide v3 expressing BA/F3 cells were cultured in RPM1640 medium containing 10% of fetal bovine serum. To prepare the EML4-ALK fusion polypeptide v3, about 2×10^9 cells were collected. After washing 3 times with PBS, cells were lysed in a lysis solution (50 mM Tris.HCl (pH7.4), 150 mM NaCl, 1% Triton X100, 5 mM EDTA, 5 mM EGTA, 1 mM NaVO4, 1 mM DTT and protease inhibitor cocktail complete). The EML4-ALK fusion polypeptide v3 present in the supernatant obtained after a centrifugation was purified using ANTI-FLAG M2 Affinity Gel (SIGMA-ALDRICH Inc) according to the method described in the product information document. For washing and elution, the washing solution (50 mM Tris.HCl (pH7.4), 250 mM NaCl, 0.05% Brij35, 1 mM EDTA, 1 mM EGTA, 1 mM NaVO4, 1 mM DTT, complete) and the elution solution (50 mM Tris.HCl (pH7.4), 150 mM NaCl, 0.05% Brij35, 1 mM DTT, 0.5 mg/mL FLAG peptide) were used, respectively. Immunoblotting using anti-ALK antibody and anti FLAG M2 antibody (SIGMA-ALDRICH Inc.) and silver staining were carried out for the eluate to detect the EML4-ALK fusion polypeptide v3.\n(§3) The EML4-ALK fusion polypeptide v3 purified as described above was diluted in a reaction solution (15 mM Tris HCl (pH7.4), 0.25 mM MgCl2, 0.01% Tween-20, 2 mM DTT), and then ATP was not added or ATP 20 μM was added. The respective mixtures were reacted at room temperature for 1 hour. After the reaction, the auto phosphorylated EML4-ALK fusion polypeptide v3 and the EML4-ALK fusion polypeptide v3 were detected by immunoblotting using anti-phosphorylated ALK antibody, which recognizes specifically the product phosphorylated at the 1604th tyrosine residue of ALK, and anti-ALK antibody, and quantitated by an image analysis system (VersaDoc Imaging System; Bio-Rad Inc.). […]"}, "[6]": {"target": "T1, EML4-ALK fusion polypeptide v3", "test": "In vitro phosphorylation of peptide substrate by purified EML4-ALK fusion polypeptide v3 (HTRF KinEASE-TK)", "type": "biochemical", "set-up": "expresses both EML4-ALK fusion polypeptide v3 having the FLAG tag at the N-terminus and CD8; made in house; host or cells: mouse BA/F3 cells infected with FLAG-EML4-ALKv3/pMX-iresCD8 retrovirus", "settings": "TK substrate 1", "method": "as §2, §3"}, "[7]": {"test_system": "NCI-H2228", "test": "Anti-tumor test against NCI-H2228 subcutaneous tumor in NOD/SCID mice", "type": "in vivo", "settings": "10 mg/kg orally once a day for 14 days, solvent group start day = 100% inhibition, finish day = 0%", "method": "3×10^6 cells of NCI-H2228 suspended in 50% BD Matrigel™ (BD Biosciences) in PBS were inoculated subcutaneously by injection to the back of 5 weeks old male NOD/SCID mice (Japan Charles River Inc.). […] Administrations were performed once a day for 14 days, and body weight and tumor size were measured every three or four day. Tumor volume was calculated using the following formula. [Tumor volume (mm^3)]=[Tumor major axis (mm)]×[tumor minor axis (mm)]^2×0.5"}, "[8]": {"settings": "Mus musculus, NIH3T3, read-out: Inhibitory activity on v3 expressing 3T3 cells"}, "[9]": {"settings": "Homo sapiens, NCI-H2228, read-out: Inhibitory activity on NCI-H2228 cells"}},
  "data": [
    {"compound": "COc1cc2ncnc(Nc3ccc(O)c(Br)c3)c2cc1OC", "note": "[A, 4-[(3′-Bromo-4′-hydroxyphenyl)amino]-6,7-dimethoxyquinazoline]", "values": [
      {"measurement": "Inhibition on autophosphorylation (v3 expressing 3T3 cells)", "setting": "[1]; final concentration 10 μM", "value": 94, "unit": "%"},
      {"measurement": "Inhibitory activity on v3 expressing 3T3 cells", "setting": "[2]; final concentration 10 μM, 3 days, cell number at Day 0 = 100% inhibition, Day 3 = 0%", "value": 172, "unit": "%"},
      {"measurement": "Inhibitory activity on NCI-H2228 cells", "setting": "[3]; final concentration 10 μM, 5 days, cell number at Day 0 = 100% inhibition, Day 5 = 0%", "value": 164, "unit": "%"},
      {"measurement": "Inhibition of the activity of NPM-ALK", "setting": "[4]", "value": "inhibit the activity of NPM-ALK"},
      {"measurement": "Inhibition on autophosphorylation", "setting": "[5]; final concentration 10 μM", "value": 100, "unit": "%"},
      {"measurement": "Inhibition on peptide substrate", "setting": "[6]; final concentration 10 μM", "value": 98, "unit": "%"}
    ]},
    {"compound": "O=C(COc1ccc(OC(F)(F)F)cc1)NCc1nc(C(=O)NCCc2cccc(Cl)c2)cs1", "note": "[B, N-[2-(3-chlorophenyl)ethyl]-2-[({[4-(trifluoromethoxy)phenoxy]acetyl}amino)methyl]-1,3-thiazole-4-carboxamide]", "values": [
      {"measurement": "inhibition at 10 µM", "setting": "[1]; NIH3T3, final concentration 10 μM", "value": 76, "unit": "%"},
      {"measurement": "inhibition at 10 µM", "setting": "[2]; [8]", "value": 53, "unit": "%"},
      {"measurement": "inhibition at 10 µM", "setting": "[3]; [9]", "value": 102, "unit": "%"},
      {"measurement": "inhibition at 10 µM", "setting": "[5]; final concentration 10 μM", "value": 100, "unit": "%"},
      {"measurement": "inhibition at 10 µM", "setting": "[6]; final concentration 10 μM", "value": 77, "unit": "%"}
    ]},
    {"compound": "COc1cc(N2CCC(N3CCN(C)CC3)CC2)ccc1Nc1ncc(Cl)c(Nc2ccccc2S(=O)(=O)C(C)C)n1", "note": "[Compound C, 5-chloro-N^4-[2-(isopropylsulfonyl)phenyl]-N^2-{2-methoxy-4-[4-(4-methylpiperazin-1-yl)piperidin-1-yl]phenyl}pyrimidine-2,4-diamine]", "values": [
      {"measurement": "inhibition at 0.03 µM", "setting": "[2]; [8]", "value": 182, "unit": "%"},
      {"measurement": "inhibition at 0.03 µM", "setting": "[3]; [9]", "value": 137, "unit": "%"},
      {"measurement": "Inhibition rate of tumor growth (tumor volume) of NCI-H2228", "setting": "[7]", "value": 132, "unit": "%"}
    ]},
    {"compound": "CNS(=O)(=O)c1ccccc1Nc1nc(Nc2ccc(N3CCN(C)CC3)cc2OC)ncc1Br", "note": "[D, 2-[(5-bromo-2-{[2-methoxy-4-(4-methylpiperazin-1-yl)phenyl]amino}pyrimidin-4-yl)amino]-N-methylbenzenesulfonamide]", "values": [
      {"measurement": "inhibition at 0.01 µM", "setting": "[1]; NIH3T3, final concentration 10 nM", "value": 106, "unit": "%"},
      {"measurement": "inhibition at 0.03 µM", "setting": "[2]; [8]", "value": 206, "unit": "%"},
      {"measurement": "inhibition at 0.03 µM", "setting": "[3]; [9]", "value": 141, "unit": "%"},
      {"measurement": "inhibition at 0.01 µM", "setting": "[5]; final concentration 10 nM", "value": 107, "unit": "%"},
      {"measurement": "inhibition at 0.01 µM", "setting": "[6]; final concentration 10 nM", "value": 98, "unit": "%"}
    ]},
    {"compound": "COc1cc2ncnc(Nc3ccc(O)cc3)c2cc1OC", "note": "[WHI-P131, 4-(4′-Hydroxyphenyl)amino-6,7-dimethoxyquinazoline]", "values": [
      {"measurement": "Inhibition of the activity of NPM-ALK", "setting": "[4]", "value": "inhibit the activity of NPM-ALK"}
    ]}
  ]
}
